Where two headings read alike, the source gives them in different places.
Tests used:
[1] = target: full-length human RORγt (Homo sapiens (Human), UniProt P51449); experiment: RORγt (full-length human) reporter assay, Conditions B or C; type: cell-based; conditions: for inhibition at 3 µM: at 3 μM compound concentration; for IC50: read-out: RORγt (FL) Reporter Assay B or C, IC50; for RORγt (FL) Reporter Assay B or C, % inhibition (value marked *): marked *: footnote not given
How it was run: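 HEK293T cells transiently co-transfected with GAL4-DBD–full-length human RORγt (nt 142-1635, NM_001001523.1) plus GAL4-firefly and CMV-Renilla luciferase reporters; compounds added 4-6 h post-transfection for 16-20 h in 1.3% FBS, 0.1% DMSO. Firefly signal normalized to DMSO and saturating reference compound, then to Renilla; IC50 from concentration plots.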

[2] = target: human RORγt ligand binding domain (RORγt LBD) (Homo sapiens (Human), UniProt P51449); experiment: RORγt ThermoFluor® assay (thermal shift binding); conditions: read-out: ThermoFluor® Assay, Kd
Chain of human RORγt ligand binding domain (RORγt LBD) (P51449 other isoform, or with tags, fused parts or gaps): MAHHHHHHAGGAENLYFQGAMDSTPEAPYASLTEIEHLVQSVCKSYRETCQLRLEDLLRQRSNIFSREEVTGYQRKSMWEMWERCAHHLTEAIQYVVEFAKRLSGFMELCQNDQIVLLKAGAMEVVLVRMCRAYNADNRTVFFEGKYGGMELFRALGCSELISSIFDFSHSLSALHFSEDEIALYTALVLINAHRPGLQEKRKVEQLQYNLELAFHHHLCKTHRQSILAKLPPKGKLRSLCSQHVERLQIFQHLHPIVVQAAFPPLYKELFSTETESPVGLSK
How it was run: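 His-tagged human RORγt LBD (0.065 mg/mL) with 60 μM 1,8-ANS in 100 mM Hepes pH 7.0, 10 mM NaCl, 2.5 mM GSH, 0.002% Tween-20 was heated at 1 °C/min.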

[3] = read-out: RORγt (FL) Reporter Assay B or C, % inhibition

Chain of full-length human RORγt (P51449 other isoform, or with tags, fused parts or gaps): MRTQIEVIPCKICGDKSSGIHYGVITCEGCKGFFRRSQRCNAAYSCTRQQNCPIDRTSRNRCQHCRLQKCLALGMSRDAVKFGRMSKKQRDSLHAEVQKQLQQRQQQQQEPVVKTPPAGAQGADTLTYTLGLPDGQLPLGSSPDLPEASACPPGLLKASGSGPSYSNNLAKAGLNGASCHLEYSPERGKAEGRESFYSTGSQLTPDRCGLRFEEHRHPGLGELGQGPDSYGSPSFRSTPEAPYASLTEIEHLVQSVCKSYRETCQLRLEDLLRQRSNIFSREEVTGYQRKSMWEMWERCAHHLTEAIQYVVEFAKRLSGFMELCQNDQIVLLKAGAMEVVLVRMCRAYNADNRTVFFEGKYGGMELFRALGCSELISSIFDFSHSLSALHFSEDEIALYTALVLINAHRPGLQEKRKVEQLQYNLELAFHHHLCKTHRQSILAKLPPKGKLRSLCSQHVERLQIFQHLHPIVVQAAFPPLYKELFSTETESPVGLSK

SMILES	inhibition at 3 µM [1, 3]	IC50 [1]	Kd [2]	inhibition at 1 µM ([1]; at 1 μM compound concentration, read-out: RORγt (FL) Reporter Assay B or C, % inhibition)	RORγt (FL) Reporter Assay B or C, % inhibition (value marked *) ([1]; Conditions B or C)	IC50 ([1]; Conditions B or C)	RORγt (FL) Reporter Assay B or C, % inhibition (value marked ***) ([1]; Conditions B or C, marked ***: footnote not given)
C[C@H]1CC(F)(F)CN1C(=O)c1nc(C(=O)N[C@H](C)C(C)(C)O)sc1-c1cnc(N[C@@H](C2CC2)C(F)(F)F)cc1C(F)F [Example 314, 5-(6-(((S)-1-Cyclopropyl-2,2,2-trifluoroethyl)amino)-4-(difluoromethyl)pyridin-3-yl)-4-((S)-4,4-difluoro-2-methylpyrrolidine-1-carbonyl)-N—((R)-3-hydroxy-3-methylbutan-2-yl)thiazole-2-carboxamide]	101%	35 nM	1.4 nM	–	–	–	–
C[C@H]1CCCN1C(=O)c1nc(C(=O)NCCC(C)(C)O)sc1-c1cnc(NC(C)(C)C)cc1C(F)(F)F [Example 338, 5-[6-(tert-Butylamino)-4-(trifluoromethyl)-3-pyridyl]-N-(3-hydroxy-3-methyl-butyl)-4-[(2S)-2-methylpyrrolidine-1-carbonyl]thiazole-2-carboxamide]	107%	7.7 nM	3.9 nM	–	–	–	–
C[C@H]1CCCN1C(=O)c1nc(C(=O)N[C@H]2C[C@H](O)C2)sc1-c1cnc(NC2(C)CCC2)cc1C(F)F [Example 323, 5-(4-(Difluoromethyl)-6-((1-methylcyclobutyl)amino)pyridin-3-yl)-N-((1r,3S)-3-hydroxycyclobutyl)-4-((S)-2-methylpyrrolidine-1-carbonyl)thiazole-2-carboxamide]	–	150 nM	8.2 nM	97%	–	–	–
C[C@H]1CCCCN1C(=O)c1nc(C(=O)NCC(C)(C)O)sc1-c1cnc(NC(C)(C)C)cc1C(F)(F)F [Example 80, (S)-5-(6-(tert-Butylamino)-4-(trifluoromethyl)pyridin-3-yl)-N-(2-hydroxy-2-methylpropyl)-4-(2-methylpiperidine-1-carbonyl)thiazole-2-carboxamide]	–	–	0.19 nM	–	111* %	4.7 nM	–
C[C@H]1CCCN1C(=O)c1nc(C(=O)N[C@H]2C[C@@](C)(O)C2)sc1-c1cnc(NC(C)(C)C)cc1C(F)(F)F [Example 337, 5-[6-(tert-Butylamino)-4-(trifluoromethyl)-3-pyridyl]-N-(3-hydroxy-3-methyl-cyclobutyl)-4-[(2S)-2-methylpyrrolidine-1-carbonyl]thiazole-2-carboxamide]	105%	13 nM	2.9 nM	–	–	–	–
C[C@H](Nc1cc(C(F)F)c(-c2sc(C(=O)N[C@@H]3CC[C@@H](O)C3)nc2C(=O)N2CC(F)(F)C[C@@H]2C)cn1)C(F)(F)F [Example 410, 4-[(2S)-4,4-Difluoro-2-methyl-pyrrolidine-1-carbonyl]-5-[4-(difluoromethyl)-6-[[(1S)-2,2,2-trifluoro-1-methyl-ethyl]amino]-3-pyridyl]-N-[(1R,3R)-3-hydroxycyclopentyl]thiazole-2-carboxamide]	97%	18 nM	1.1 nM	–	–	–	–
CC(C)(O)CNC(=O)c1nc(C(=O)N2C3CCC2CC3)c(-c2cnc(NC(C3CC3)C3CC3)cc2C(F)F)s1 [Example 178, 4-((1s,4s)-7-Azabicyclo[2.2.1]heptane-7-carbonyl)-5-(6-((dicyclopropylmethyl)amino)-4-(difluoromethyl)pyridine-3-yl)-N-(2-hydroxy-2-methylpropyl)thiazole-2-carboxamide]	–	–	2 nM	–	102* %	5.5 nM	–
[2H]C([2H])([2H])C(O)(CNC(=O)c1nc(C(=O)N2CCC[C@@H]2C)c(-c2cnc(NC(C)(C)C)cc2C(F)(F)F)s1)C([2H])([2H])[2H] [Example 180, (S)-5-(6-(tert-Butylamino)-4-(trifluoromethyl)pyridine-3-yl)-N-(2-hydroxy-2-(methyl-d3)propyl-3,3,3-d3)-4-(2-methylpyrrolidine-1-carbonyl)thiazole-2-carboxamide]	–	–	1.8 nM	–	113* %	20 nM	–
C[C@H]1CCCN1C(=O)c1nc(C(=O)NCC(C)(C)O)sc1-c1cnc(NC(C)(C)C(F)(F)F)cc1C(F)(F)F [Example 132, (S)—N-(2-Hydroxy-2-methylpropyl)-4-(2-methylpyrrolidine-1-carbonyl)-5-(6-((1,1,1-trifluoro-2-methylpropan-2-yl)amino)-4-(trifluoromethyl)pyridin-3-yl)thiazole-2-carboxamide]	–	–	0.41 nM	–	112* %	14 nM	–
C[C@H](Nc1cc(C(F)F)c(-c2sc(C(=O)N[C@H]3C[C@H](O)C3)nc2C(=O)N2CC(F)(F)C[C@@H]2C)cn1)C(F)(F)F [Example 191, 4-((S)-4,4-Difluoro-2-methylpyrrolidine-1-carbonyl)-5-(4-(difluoromethyl)-6-(((S)-1,1,1-trifluoropropan-2-yl)amino)pyridine-3-yl)-N-((1r,3S)-3-hydroxycyclobutyl)thiazole-2-carboxamide]	–	–	18 nM	–	98* %	32 nM	–
C[C@H]1CC(F)(F)CN1C(=O)c1nc(C(=O)N[C@H](C)C(C)(C)O)sc1-c1cnc(NC(C)(C)C)cc1C(F)F [Example 256, 5-[6-(tert-Butylamino)-4-(difluoromethyl)-3-pyridyl]-4-[(2S)-4,4-difluoro-2-methyl-pyrrolidine-1-carbonyl]-N-[(1R)-2-hydroxy-1,2-dimethyl-propyl]thiazole-2-carboxamide]	123%	20 nM	1.7 nM	–	–	–	–
C[C@H]1CCCN1C(=O)c1nc(C(=O)N2CC(C)(O)C2)sc1-c1cnc(NC(C)(C)C)cc1C(F)(F)F [Example 268, [5-[6-(tert-Butylamino)-4-(trifluoromethyl)-3-pyridyl]-2-(3-hydroxy-3-methyl-azetidine-1-carbonyl)thiazol-4-yl]-[(2S)-2-methylpyrrolidin-1-yl]methanone]	109%	110 nM	2.4 nM	–	–	–	–
C[C@H]1CC(F)(F)CN1C(=O)c1nc(C(=O)N[C@H](C)C(C)(C)O)sc1-c1cnc(NC2(C)CCC2)cc1C(F)F [Example 325, 4-((S)-4,4-Difluoro-2-methylpyrrolidine-1-carbonyl)-5-(4-(difluoromethyl)-6-((1-methylcyclobutyl)amino)pyridin-3-yl)-N—((R)-3-hydroxy-3-methylbutan-2-yl)thiazole-2-carboxamide]	96%	120 nM	1.2 nM	–	–	–	–
C[C@H](O)[C@@H](C)NC(=O)c1nc(C(=O)N2CCC[C@@H]2C)c(-c2cnc(NC(C)(C)C)cc2C(F)(F)F)s1 (relative stereo) [Example 235, 5-(6-(tert-Butylamino)-4-(trifluoromethyl)pyridin-3-yl)-N-((2R*,3S*)-3-hydroxybutan-2-yl)-4-((S)-2-methylpyrrolidine-1-carbonyl)thiazole-2-carboxamide]	–	–	1.2 nM	–	106* %	34 nM	–
CC[C@@H](Nc1cc(C(F)F)c(-c2sc(C(=O)N[C@H]3COC[C@@H]3O)nc2C(=O)N2CCC[C@@H]2C)cn1)C(F)(F)F [Example 207, 5-(4-(Difluoromethyl)-6-(((1R)-1-(trifluoromethyl)propyl)amino)-3-pyridyl)-N-((3S,4R)-4-hydroxytetrahydrofuran-3-yl)-4-((2S)-2-methylpyrrolidine-1-carbonyl)thiazole-2-carboxamide]	–	–	2.6 nM	–	–	19 nM	103*** %
C[C@H]1CCCN1C(=O)c1nc(C(=O)NC[C@@H](O)CO)sc1-c1cnc(NC(C)(C)C)cc1C(F)(F)F [Example 345, 5-[6-(tert-Butylamino)-4-(trifluoromethyl)-3-pyridyl]-N-[(2R)-2,3-dihydroxypropyl]-4-[(2S)-2-methylpyrrolidine-1-carbonyl]thiazole-2-carboxamide]	111%	63 nM	16 nM	–	–	–	–
C[C@H](CO)NC(=O)c1nc(C(=O)N2CCC[C@@H]2C)c(-c2cnc(NC(C)(C)C)cc2C(F)F)s1 [Example 148, 5-(6-(tert-Butylamino)-4-(difluoromethyl)-3-pyridyl)-N-((1R)-2-hydroxy-1-methyl-ethyl)-4-((2S)-2-methylpyrrolidine-1-carbonyl)thiazole-2-carboxamide]	–	–	6.4 nM	–	95* %	25 nM	–
CC[C@H](Nc1cc(C(F)F)c(-c2sc(C(=O)N[C@H]3CCC[C@@H]3O)nc2C(=O)N2CC(F)(F)C[C@@H]2C)cn1)C(F)(F)F [Example 419, 4-[(2S)-4,4-Difluoro-2-methyl-pyrrolidine-1-carbonyl]-5-[4-(difluoromethyl)-6-[[(1S)-1-(trifluoromethyl)propyl]amino]-3-pyridyl]-N-[(1S,2S)-2-hydroxycyclopentyl]thiazole-2-carboxamide]	84%	34 nM	0.21 nM	–	–	–	–
C[C@H](CO)NC(=O)c1nc(C(=O)N2CC(F)(F)C[C@@H]2C)c(-c2cnc(N[C@@H](C)C(F)(F)F)cc2C(F)F)s1 [Example 447, 4-[(2S)-4,4-Difluoro-2-methyl-pyrrolidine-1-carbonyl]-5-[4-(difluoromethyl)-6-[[(1S)-2,2,2-trifluoro-1-methyl-ethyl]amino]-3-pyridyl]-N-[(1R)-2-hydroxy-1-methyl-ethyl]thiazole-2-carboxamide]	89%	75 nM	2.1 nM	–	–	–	–
